Measurements taken from the CheMixHub viscosity set.

Assay: xn = mol fraction of the nth substance listed
Conditions: 101 kPa

CC(O)CCO (stereo not given) + NCCN
viscosity [mPa·s]
Conditions	298.15 K	303.15 K	308.15 K	313.15 K	318.15 K
x1 = 0.0339	1.64	1.4	1.3	1.21	1.04
x1 = 0.069	1.98	1.66	1.56	1.42	1.23
x1 = 0.1053	2.43	2.01	1.82	1.7	1.42
x1 = 0.1429	3.03	2.47	2.24	2.05	1.71
x1 = 0.1819	3.82	3.07	2.73	2.54	2.05
x1 = 0.2223	4.9	3.88	3.4	3.08	2.49
x1 = 0.2642	6.37	4.97	4.3	3.85	3.09
x1 = 0.3078	8.35	6.46	5.45	4.85	3.81
x1 = 0.353	11.2	8.5	7.1	6.21	4.83
x1 = 0.4001	15.1	11.2	9.15	7.91	6.04
x1 = 0.4491	20.4	14.9	12	10.2	7.56
x1 = 0.5001	27.3	19.6	15.4	13.1	9.61
x1 = 0.5533	36	25.4	19.7	16.4	12
x1 = 0.6088	46.1	32.1	24.8	20.4	14.8
x1 = 0.6667	56.3	39.4	29.9	24.5	18.2
x1 = 0.7273	66.7	47.4	35.9	28.7	21.5
x1 = 0.7908	77.5	56	41.7	32.4	24.4
x1 = 0.8572	85.7	62	46.2	35.8	26.9
x1 = 0.9269	91.6	66.1	49.3	38.2	28.6

c1ccncc1 + O
viscosity [mPa·s]
Conditions	298.15 K	303.15 K	308.15 K	313.15 K	318.15 K
x1 = 0.0201	1.122	0.9952	0.8906	0.8042	0.7251
x1 = 0.0503	1.379	1.214	1.078	0.9651	0.8727
x1 = 0.0701	1.532	1.342	1.187	1.058	0.9504
x1 = 0.0999	1.725	1.505	1.325	1.175	1.05
x1 = 0.1203	1.837	1.6	1.405	1.244	1.11
x1 = 0.1499	1.972	1.713	1.501	1.326	1.18
x1 = 0.1701	2.05	1.778	1.556	1.373	1.22
x1 = 0.1999	2.139	1.853	1.619	1.426	1.266
x1 = 0.2201	2.189	1.897	1.657	1.467	1.302
x1 = 0.2502	2.235	1.934	1.688	1.485	1.316
x1 = 0.2701	2.253	1.949	1.701	1.496	1.326
x1 = 0.2999	2.265	1.96	1.711	1.505	1.334
x1 = 0.3198	2.26	1.957	1.709	1.504	1.333
x1 = 0.35	2.235	1.937	1.694	1.492	1.324
x1 = 0.4002	2.15	1.87	1.64	1.45	1.289
x1 = 0.4499	2.023	1.77	1.56	1.384	1.236
x1 = 0.5002	1.871	1.648	1.461	1.304	–
x1 = 0.5998	1.559	1.395	1.255	1.134	–
x1 = 0.7002	1.297	1.177	1.073	0.9812	–
x1 = 0.8004	1.109	1.018	0.9375	0.8659	–
x1 = 0.8999	0.983	0.9101	0.8448	0.7862	–
